Reference: patent US10335417B2, “Thiazideamide derivative and use thereof” (Institute of Pharmacology and Toxicology Academy of …, priority 2015, dated 2019)

What was measured:
[1] = system: chick embryo dorsal root ganglion; test: in vitro serum-free culture model of chick embryonic dorsal root ganglion: neurite growth score with NGF; assay type: cell-based; settings: for Average score (growth of neurites of chick embryo dorsal root ganglion): 48 h, score 0-3, average of five ganglions, control 0.33
Procedure: The neurotrophic activity of the compounds according to the invention can be embodied in multiple in vitro biological models, such as in vitro serum-free culture model of chick embryonic dorsal root ganglion.
Experimental method: in a sterile environment, chick embryo, which had been incubated for 8 d, had the spinal and bilateral ganglion exposed under anatomical lens. Dorsal root ganglions were picked one by one using sharp forceps, and seeded in culture bottles spread with rat tail collagen, at a density of 5-6 ganglions per bottle, and two bottles for each dose. After attachment culture in a 37° C., 5% CO2 incubator for 1 h, serum-free medium DMEM containing nerve growth factor (NGF) (0.15 ng/mL), and the compound according to the invention were added. In the control group, only the medium and the same dose of NGF were added. After culture in the incubator for 48 h, the growth of neurite around dorsal root ganglion was observed under inverted phase contrast microscope, which was scored depending on the length and density of neurite.
Evaluation criteria: 0: no neurite; 1: rare long neurite; 2: relatively long or dense neurite; 3: long and dense neurite.

[2] = system: BCAO-LBP mice (incomplete global cerebral ischemia); test: mouse BCAO-LBP model of incomplete global cerebral ischemia: cerebral MDA content and neurological function score; assay type: in vivo, Kunmin mice; settings: for Neurologic deficit score / MDA content: 30 mg/kg i.g. once/d for 3 d, x ± SEM; for Neurologic deficit score: behaviour within 6 h after ligation, model group 3.92, sham 0.00; for neurologic deficit score decreased compared to the group administered with Compound 6: 30 mg/kg i.g., BCAO-LBP mice; for MDA content: whole cerebrum, model group 40.94, sham 33.15
Description: In the Example, Kunmin mice were used as experimental subjects, intragastric (i.g.) administration was used, mouse BCAO-LBP (bilateral carotid artery occlusion with low blood pressure) model was used, and by determining neurological function score and the cerebral malondialdehyde (MDA) content in mice, the compounds were investigated for their protective effects on incomplete global cerebral ischemia in mice when administered prophylactically.
2.1.2 Preparation of a drug for intragastric administration: the compound was prepared to a 1.5 mg/ml solution using 0.7% CMC-Na solution.
28 mice, which had adapted to the laboratory environment for 1 week, were evenly grouped depending on body weight. The mice were intragastrically administered with 0.7% CMC-Na or one of the compounds, once/d, for 3 d. The groups were as followed:
Administration group: 12 mice, intragastrically administered at a dose of 0.2 ml/10 g, i.e., the dose of the compound was 30 mg/kg.
2.3.1 Mouse bilateral carotid artery ligation: 1 h after the last administration, the mice were subjected to orbital bloodletting to reduce blood pressure (which was about 30% of the total blood volume of the mice), and then fixed in supine position on the operating table, and cut in the middle of neck. Carotid artery was subjected to blunt dissection, and 2 lines were used in ligation for each side. The time counting started after the ligation with the third line, the carotid artery was cut off between the two lines, and the incision was sewn up. In the Sham-operated group, the carotid artery was only separated without ligation. After the operation, the mice were unfixed quickly, and the mice were observed and recorded for the behaviors within 6 h (scoring depending on the following table using blind method) and the death time. The brains were taken quickly after the mice died, the cerebellums were removed, and the MDA content in the whole cerebrum was determined by thiobarbituric acid (TBA).
The cerebra of mice were taken and weighed, and were prepared into 15% brain homogenate using N.S. 1.2 ml brain homogenate was placed in a 37° C. water bath for 1 h (shaking once every 10 min) and then taken out. 20% trichloroacetic acid 0.6 ml was added, and the mixture was mixed well, and was on standing for 10 min. After centrifugation at 2000 rpm for 10 min, to 1.2 ml supernatant, 0.67% TBA 0.6 ml was added. The mixture was placed in a boiling water bath for 10 min, and was taken out for cooling, and the OD value at a wavelength of 532 nm was determined.
The experimental data was expressed as x±SEM; SPSS 13.0 statistic software was used. Homogeneity or heterogeneity of variance was determined by one-factor analysis of variance. In the case of homogeneity of variance, LSD test was used; in the case of heterogeneity of variance, Dunnett's T3 test was used. Significant difference among different groups was compared, and P<0.05 indicated statistical significance.

in vitro = settings: dog, MDCK-MDR1
Description: (§1) MDCK-MDR1 cells were monolayer cells which highly express P-gp transporter after transfection of MDCK (Madin-Darby canine kidney epithelial cell) with MDR1 gene. Due to its density and high expression of efflux protein, the monolayer has similarity compared to blood-brain barrier (BBB) structure and now can be used as one of models for evaluating the ability of passing through BBB. In the invention, MDCK-MDR1 cells were used to study the membrane permeability of the compounds according to the invention, and to primarily evaluate its ability of passing through BBB.
(§2) The frozen MDCK-MDR1 cells were quickly thawed in a 37° C. water bath. To the resuscitated cells, DMEM medium containing 10% FBS was added, and the cells were cultured in an incubator at 37° C., 5% CO2, and a relative humidity of 90%. The medium was changed every other day. After fusion of the cells growing for 1-2 days, the cells were digested with 0.25% trypsin-EDTA (0.2%) mixed digestion solution at 37° C., and were sub-cultured at a certain ratio. The cells for use in experiment were those passaged for 40-60 generations.
(§3) When the cell fusion degree reached 80%, the cells were digested and then suspended in complete medium, and seeded to Millicell plate at 1×10^6 cells·mL^−1. The medium was changed every other day, and 1 week later, the medium was changed every day. After culturing for 5 days, the resistance value reached a constant value (>200 Ω·cm^2), and the cells could be used in the transport experiment.
(§4) After washing with 37° C. HBSS twice, the cells were incubated in a 37° C. culture incubator, wherein Rho-123 was added to the upper wells, and HBSS was added to the bottom wells. The incubation was carried out in a constant temperature shaker, and the solutions from the bottom wells were collected at each time point (0 min, 30 min, 90 min, 120 min), and stored at −20° C. for further use. The amount of Rho-123 permeated to the bottom well was determined by fluorospectrophotometer, wherein the emission wavelength was […], and the excitation wavelength was 530 nm.
(§5) The permeability from cavity-surface to basal surface: drug-containing HBSS 0.35 mL was add to Apical (AP), and blank HBSS 1.2 mL was added to Basolateral (BL). The Millicell was placed at 37° C. in a shaker under shaking at 50 r·min^−1, 50 μL sample was collected from the bottom well at 0, 30, 90, 120 min, respectively, and the same volume of blank HBSS was supplemented. 3 wells were set for each concentration, and to the sample, an internal standard solution (50 μL) and ethyl acetate (350 μL) were added precisely. The mixture was mixed homogeneously under shaking, and centrifuged at 12000 rmp for 5 min. The supernatant (300 μL) was volatilized to dryness, and re-dissolved in 50 μL acetonitrile. The 10 μL resultant solution was used for determination.
(§6) The permeability from basal surface to cavity surface: the drug is added to Basolateral (BL), and blank HBSS was added to Apical (AP), and the other steps were the same as those of the experiment for determining the permeability from cavity-surface to basal surface.
(§7) The apparent permeability coefficient (Papp) of a drug reflects the ability of the drug to pass through cell monolayer and the drug absorption rate and extent. It can be calculated in accordance with the following equation: […]
(§8) wherein, Q represents the amount of drug permeated in the t period, A represents cell surface area, and represents the area (0.6 cm^2) of supporting film in this model, and C0 represents an initial concentration. The unit of Papp is expressed as cm·s^−1.
(§9) By measurement using LC/MS, the concentration of each sample was quantitated using its standard curve (50 nM-10000 nM).

MDCK-MDR1 cells = test: in vitro; settings: for Papp value increased compared to Compound 6: dog, MDCK-MDR1, 120 min
Description: as §1, §2, §3, §4, §5, §6, §7, §8, §9

[3] = compound 100 pM + NGF 0.15 ng/mL

Row | SMILES | Average score (growth of neurites of chick embryo dorsal root ganglion) ([1]; compound 1 pM + NGF 0.15 ng/mL) | Average score (growth of neurites of chick embryo dorsal root ganglion) [1, 3] | Neurologic deficit score [2] | neurologic deficit score decreased compared to the group administered with Compound 6 [2] | MDA content [2] | Papp at 120 min (in vitro) | Papp value increased compared to Compound 6 (MDCK-MDR1 cells) | neurotrophic activity increased compared to Compound 6 ([1]; dose 1 pM) | neurotrophic activity increased compared to Compound 6 ([1]; dose 100 pM) | Papp (apparent permeability coefficient) (MDCK-MDR1 cells; MDCK-MDR1)
1 | Cc1ccc(S(=O)(=O)N2CCSC[C@H]2C(=O)N[C@@H](Cc2ccccc2)C(=O)OC(C)C)cc1 [Compound 23, (S)-isopropyl-3-phenyl-2((R)-(4-methylphenyl)sulfonyltetrahydro-1,4-thiazin-3-aminoformyl)propionate] | 2.12 | 3.21 | 1.81 ± 0.26 | ~13% | 31.87 ± 0.95 nmol/g | 44.2 ×10⁻⁶ cm/s | above 7% |  |  | 
2 | CCc1ccc(S(=O)(=O)N2CCSC[C@H]2C(=O)NC(CC(C)C)C(=O)OC(C)C)cc1 (stereo in doubt) [Compound 28, (3R)-4-[(4-ethylbenzenesulfonyl)]tetrahydro-1,4-thiazin-3-carbonyl-L-leucine isopropyl ester] | 2.00 | 2.96 | 1.87 ± 0.31 | ~10% | 30.90 ± 1.65 nmol/g | 45.8 ×10⁻⁶ cm/s | above 7% | 19% | 16% | 
3 | CCOC(=O)[C@H](CC(C)C)NC(=O)[C@@H]1CSCCN1S(=O)(=O)c1ccc(C)cc1 [Compound 5, (3R)-4-[(4-methylbenzenesulfonyl)]-1,4-thiazin-3-carbonyl-L-leucine ethyl ester, reference compound] | 0.65 | 1.55 | 3.62 ± 0.31 |  | 36.09 ± 1.85 nmol/g |  |  |  |  | 8.38 ×10⁻⁶ cm/s
4 | CCOC(=O)[C@@H](NC(=O)[C@@H]1CSCCN1S(=O)(=O)c1ccc(C)cc1)C(C)CC (stereo partly drawn) [Compound 7, (2S,3R)-ethyl-3-methyl-2((R)-(4-methylphenyl)sulfonyltetrahydro-1,4-thiazin-3-aminoformyl)valerate] | 1.46 | 1.95 |  |  |  | 49.8 ×10⁻⁶ cm/s | above 7% |  |  | 
